From patent US20150057351A1, “METHOD FOR TREATING NEUROPATHIC PAIN” (SUCAMPO AG, priority 2013, published 2015)
Marks after values point to notes of the source that are not given here.

What was measured:
[1] = tested on: neuropathic pain model rats; assay: Pain threshold in neuropathic pain model rats (L4/L5 nerve root ligation, Dynamic Plantar Aesthesiometer); assay type: in vivo, rat; details: for Pain threshold, During treatment 2 day: 2-day after start of administration; for Pain threshold, During treatment 4-day: 4-day after start of administration; for Pain threshold, During treatment 7-day: 7-day after start of administration; for Pain threshold, 10-day: 10-day after start of administration; for Pain threshold, Pre-treatment: baseline, before start of administration
[2] = tested on: patients who have neuropathic pain around the low back and the lower limbs; assay: Pain-associated QOL by JOABPEQ (social life function) in patients with neuropathic pain; assay type: in vivo, human
Procedure: (§1) Compound A and corresponding placebo were injected to the patients who have neuropathic pain around the low back and the lower limbs twice daily for 14 days. For the first 3 days, 30 μg of Compound A was administered twice daily (60 μg/day), and then 60 μg of Compound A was administer twice daily (120 μg/day) for the next 11 days.
The patient's pain-associated quality of life (QOL) was assessed using Japan Orthopedic Association Back Pain Evaluation questionnaires (JOABPEQ). Patients self-evaluated their QOL before (Pre-Treatment), 8 days (Day 8) and 15 days (Day 15) after start treatment by Compound A or placebo.

[3] = tested on: patients who have neuropathic pain around the low back and the lower limbs; assay: Pain intensity by Visual Analogue Scale (VAS), responder rate in patients with neuropathic pain; assay type: in vivo, human
Procedure: as §1
The intensity of pain was assessed using Visual Analogue Scale (VAS). A VAS is usually a horizontal line, 100 mm in length, anchored by no pain and awful pain at each end. The patient marks on the line the point that they feel represents their perception of their current state. The VAS score is determined by measuring in millimeters from the left hand end of the line to the point that the patient marks. VAS score was measured before (Pre-treatment) and 15-days (Day 15) after start treatment by Compound A or placebo.

[4] = 30 μg/kg intravenous twice a day for 7 days
[5] = 1 mg/kg oral twice a day for 7 days

Row | SMILES | Pain threshold, During treatment 2 day [1, 4] | Pain threshold, During treatment 4-day [1, 4] | Pain threshold, During treatment 7-day [1, 4] | Pain threshold, 10-day [1, 4] | Pain threshold, Pre-treatment ([1]; 30 μg/kg intravenous twice a day, 4 days after surgery) | Pain threshold of the model paw compared with vehicle-control group ([1]; intravenous, 30 μg/kg twice a day) | Change in score of social life function from pre-treatment, Day 15 ([2]; injected twice daily for 14 days: 60 μg/day for 3 days, then 120 μg/day for 11 days, Day 15, JOABPEQ) | Social life function (JOABPEQ factor) ([2]; injected twice daily for 14 days, vs placebo) | Change in score of social life function from pre-treatment, Day 8 ([2]; injected twice daily: 60 μg/day for 3 days, then 120 μg/day, Day 8, JOABPEQ) | Rate of responder ([3]; injected twice daily for 14 days: 60 μg/day for 3 days, then 120 μg/day for 11 days, VAS Day 15 vs pre-treatment) | Responder rate compared with placebo treated group ([3]; injected twice daily for 14 days, VAS Day 15) | Pain threshold, During treatment 2 day [1, 5] | Pain threshold, During treatment 4-day [1, 5] | Pain threshold, During treatment 7-day [1, 5] | Pain threshold, 10-day [1, 5] | Pain threshold, Pre-treatment ([1]; 1 mg/kg oral twice a day) | Pain threshold of the model paw compared with vehicle-control group ([1]; oral, 1 mg/kg twice a day for 7 days)
1 | CCCCC(F)(F)C(=O)CC[C@H]1CCC(=O)[C@@H]1CCCCCCC(=O)O [Compound A, (−)-7-[(1R,2R)-2-(4,4-difluoro-3-oxooctyl)-5-oxocyclopentyl]heptanoic acid] | 6.8 ± 0.3 g | 7.6 ± 0.3 g | 8.1 ± 0.3 g | 8.4 g | 6.1 ± 0.2 g | statistically significantly increased | 3.0 ± 2.8 (N = 20) | significantly improved | 2.7 ± 2.8 (N = 20) ^a | 94.4% (N = 18) * | significantly higher |  |  |  |  |  | 
2 | CCCCC(F)(F)C(=O)CC[C@H]1CCC(=O)[C@@H]1CCCC/C=C/C(=O)O [Compound B, (E)-7-[(1R,2R)-2-(4,4-difluoro-3-oxooctyl)-5-oxocyclopentyl]hept-2-enoic acid] |  |  |  |  |  |  |  |  |  |  |  | 7.7 ± 0.3 g | 8.2 g | 8.6 ± 0.2 g | 8.2 ± 0.2 g | 6.8 ± 0.2 g | statistically significantly increased
